Laboratory results: US9695219B2, “Polypeptide having antibacterial activity and angiogenesis-inducing activity and wound-healing drug containing said polypeptide” (priority 2009, dated 2017)
Where a SMILES comes first, the peptide text is derived from it. [ ]: non-standard residue; d: D form.

What was measured:
MSSA (clinical strain 1) = experiment: microbe, parasite or virus in culture; format: cell-based, Staphylococcus aureus; settings: 37° C. for 20 hours; tested twice, first/second value where not matched
Experimental: Further, with respect to not only the above-described strains but also various other strains, the “minimum inhibitory concentration (MIC)” was measured as follows. MIC is the lowest concentration of an agent that may inhibit the growth of a bacterium. MIC is used as a parameter for the efficacy of an antibacterial agent, for the strength of bacterial sensitivity, or the like. The bacteria can grow (proliferate) when the concentration is not higher than MIC, and cannot grow when the concentration is higher than MIC. Its measurement is carried out according to a method defined as a standard method by Japanese Society of Chemotherapy or CLINICAL AND LABORATORY […] (CLSI), but, in this Example, its measurement was carried out by a broth microdilution method in accordance with “M100-S17/M7-A7” (Performance Standards for Antimicrobial Susceptibility Testing; Seventeenth Informational Supplement, Vol. 27 No. 1) published by CLSI on January, 2007. That is, sensitivity test of agents was carried out using a microtiter plate or test tubes.
The bacteria were cultured in liquid media for 4 to 6 hours, and thereafter absorbances at A600 were measured. Bacterial suspensions were diluted with Mueller-Hinton broth (MHB) according to McFarland #0.5. Each strain was added so as to attain about 10^5 CFU/ml (final concentration). Each peptide was prepared to an optional concentration, and the solutions were serially diluted from the concentration. The polypeptide at each concentration stage was added to a microplate or test tubes, and the bacterial suspension was added thereto. Chloramphenicol, amphotericin B, ciprofloxacin, meropenem (MEPM), ciprofloxacin (CPFX), tobramycin (TOB) and oxacillin (OX) were used as positive controls. The plate was incubated at 37° C. for 20 hours, and the lowest concentration where bacterial growth was inhibited was regarded as the minimum inhibitory concentration.

rat cut-wound model = experiment: Effect to heal cut wounds, wound closing tension; format: in vivo; settings: 500 ng, 5 and 50 μg dropwise once a day, measured on Day 6
Experimental: Next, using rat cut-wound model, the effect of the polypeptides, SR-07 and SR-08, to heal cut wounds in vivo was evaluated. As described in Tetsuaki Yamaura et al. (Oyo Yakuri (Pharmacometrics) 22, 565-579 (1981)), the rat cut-wound model was produced and the wound closing tension was measured.
That is, a cut wound of 30 to 36 mm was made on the back of Crl:CD (SD) rats (male, 7-week old, obtained from Charles River Laboratories Japan, Inc.) using a safety razor, and sutured at 3 points equally spaced. The day when this surgical treatment was applied was regarded as […] (Day 0). Onto the suture site, 50 μL of each of the peptides which were test substances and were respectively prepared to the concentration of 10, 100 and 1000 μg/mL was added dropwise (the added amounts were 500 ng and 5 and 50 μg, respectively). Additions of 50 μL physiological saline were regarded as negative controls (Saline). Each peptide was added dropwise once a day till the day when the measurement of the wound closing tension was carried out. The sutures were removed on Day 3, and the wound closing tension was measured on Day 6.

[1] = test system: Pseudomonas aeruginosa (clinical strain 8); experiment: MIC measurement, broth microdilution; format: cell-based; settings: 37° C. for 20 hours; tested twice, first/second value where not matched
[2] = test system: diabetes full-thickness defect flap model, hairless rats; experiment: Effect to heal diabetic skin ulcers in diabetes flap model; format: in vivo, rat; settings: 0.2 μg/μL
Experimental: For the purpose of producing a diabetes model, 7-week old male hairless rats (HWY/slc) were used, and, on the day before full-thickness defect flaps were created, the blood sugar level was measured and streptozotocin was administered once in tail vein (65 mg/kg). The full-thickness defect flap model was produced by measuring the blood sugar level of the rats on the day after the administration of streptozotocin and deciding only the individuals whose blood sugar level was not less than 300 mg/dL as the diabetes model. The full-thickness defect flaps were created by first creating on the back of each rat a pedicle flap of 2×2 cm (square) whose basal part was on its tail side, and then creating a full-thickness defect site (including dermal layer defect) of 1.4×1.4 cm (square: about 2 cm^2) in the central part of the created pedicle flap. Then, the flap sites were immediately sutured to obtain the full-thickness defect flap model. The model is a model of a diabetic intractable wound or skin ulcer, since the model also lacks dermal layer. […] Thereafter, on every measurement day, the test substance was administered once a day; the change of the area of the wound was calculated by measured values from a digital caliper and digital images; and the area where the wounds had still not healed was measured to calculate the ratio of it relative to the area where the wounds were created (Day 0).

[3] = test system: Pseudomonas aeruginosa (clinical strain 9); experiment: MIC measurement, broth microdilution; format: cell-based; settings: 37° C. for 20 hours; tested twice, first/second value where not matched
[4] = test system: Normal human dermal fibroblasts (NHDFs); format: cell-based
Experimental: Next, the effect of these polypeptides on the growth of human umbilical vein endothelial cells (HUVECs) was studied. A cell growth activity of the polypeptides was examined using Cell Counting Kit (WST-1) available from Dojindo Laboratories. As a negative control (Control), polypeptide-free group was used. Cells (human umbilical vein endothelial cells: HUVECs) were plated in a 96-well plate (0.5×10^4 cells/well/100 μL, serum 1%). About 3 hours after plating the cells, the polypeptides (1, 3, 10, 30 or 100 μg/ml) and FGF (100 ng/ml) as a positive control were individually added thereto in an amount of 100 μL. To the unstimulated group, only a medium was added in an amount of 100 μL. The plate was left to stand in a CO2 incubator for about 48 hours. Thereafter, WST-1 reagent was added to each well in an amount of 20 μL, and then the plate was left to stand in a CO2 incubator for about 2 hours. Absorbances at wavelengths of 450 nm and 620 nm were measured using Wallac 1420 ARVOsx (Program: WST-1). A value of O.D.450-O.D.620 was calculated for each measurement. […] The cell growth activity was evaluated on the basis of the ratio of Net O.D.450 of polypeptide-containing groups relative to Net O.D.450 of the unstimulated group.
Then, the effect on the growth of normal human dermal fibroblasts (NHDFs) was also studied by the same method as described above.

## CC[C@H](C)[C@H](NC(=O)[C@H](CC(C)C)NC(=O)[C@H](CCCCN)NC(=O)[C@@H](N)CC(C)C)C(=O)N[C@@H](Cc1ccccc1)C(=O)N[C@@H](CC(C)C)C(=O)N[C@@H](Cc1c[nH]cn1)C(=O)N[C@@H](CCCNC(=N)N)C(=O)N[C@@H](CC(C)C)C(=O)N[C@@H](CCCCN)C(=O)N[C@@H](CCCNC(=N)N)C(=O)N[C@@H](CCSC)C(=O)N[C@@H](CCCNC(=N)N)C(=O)N[C@@H](CCCCN)C(=O)N[C@@H](CCCNC(=N)N)C(=O)N[C@@H](CC(C)C)C(=O)N[C@H](CCCCN)C(=O)N[C@@H](CCCNC(=N)N)C(=O)N[C@@H](CCCCN)C(N)=O [SR-08] (H-LKLIFLHRLKRMRKRL[dK]RK-NH2; N-terminus assumed)
MSSA (clinical strain 1)
  MIC, MSSA (clinical strain 1): 16/32
Rat cut-wound model
  Wound closing tension (FIGS. 7 and 8): the wound closing tension tended to be increased
[1]
  MIC, Pseudomonas aeruginosa (clinical strain 8): 16/32
[2]
  Number of days until complete healing (FIGS. 12 and 13): significantly smaller than the solvent control group
[3]
  MIC, Pseudomonas aeruginosa (clinical strain 9): 16/64
[4]
  Concentration above which the polypeptide tended to exhibit toxicity, NHDFs (FIG. 4): > 30000 ng/mL
